The target in one assay is T1, MAP3K5 (Homo sapiens, UniProt Q99683).
T1 construct: endogenous in cells; host or cells: HeLa S3
T1 sequence (Q99683 1-1374): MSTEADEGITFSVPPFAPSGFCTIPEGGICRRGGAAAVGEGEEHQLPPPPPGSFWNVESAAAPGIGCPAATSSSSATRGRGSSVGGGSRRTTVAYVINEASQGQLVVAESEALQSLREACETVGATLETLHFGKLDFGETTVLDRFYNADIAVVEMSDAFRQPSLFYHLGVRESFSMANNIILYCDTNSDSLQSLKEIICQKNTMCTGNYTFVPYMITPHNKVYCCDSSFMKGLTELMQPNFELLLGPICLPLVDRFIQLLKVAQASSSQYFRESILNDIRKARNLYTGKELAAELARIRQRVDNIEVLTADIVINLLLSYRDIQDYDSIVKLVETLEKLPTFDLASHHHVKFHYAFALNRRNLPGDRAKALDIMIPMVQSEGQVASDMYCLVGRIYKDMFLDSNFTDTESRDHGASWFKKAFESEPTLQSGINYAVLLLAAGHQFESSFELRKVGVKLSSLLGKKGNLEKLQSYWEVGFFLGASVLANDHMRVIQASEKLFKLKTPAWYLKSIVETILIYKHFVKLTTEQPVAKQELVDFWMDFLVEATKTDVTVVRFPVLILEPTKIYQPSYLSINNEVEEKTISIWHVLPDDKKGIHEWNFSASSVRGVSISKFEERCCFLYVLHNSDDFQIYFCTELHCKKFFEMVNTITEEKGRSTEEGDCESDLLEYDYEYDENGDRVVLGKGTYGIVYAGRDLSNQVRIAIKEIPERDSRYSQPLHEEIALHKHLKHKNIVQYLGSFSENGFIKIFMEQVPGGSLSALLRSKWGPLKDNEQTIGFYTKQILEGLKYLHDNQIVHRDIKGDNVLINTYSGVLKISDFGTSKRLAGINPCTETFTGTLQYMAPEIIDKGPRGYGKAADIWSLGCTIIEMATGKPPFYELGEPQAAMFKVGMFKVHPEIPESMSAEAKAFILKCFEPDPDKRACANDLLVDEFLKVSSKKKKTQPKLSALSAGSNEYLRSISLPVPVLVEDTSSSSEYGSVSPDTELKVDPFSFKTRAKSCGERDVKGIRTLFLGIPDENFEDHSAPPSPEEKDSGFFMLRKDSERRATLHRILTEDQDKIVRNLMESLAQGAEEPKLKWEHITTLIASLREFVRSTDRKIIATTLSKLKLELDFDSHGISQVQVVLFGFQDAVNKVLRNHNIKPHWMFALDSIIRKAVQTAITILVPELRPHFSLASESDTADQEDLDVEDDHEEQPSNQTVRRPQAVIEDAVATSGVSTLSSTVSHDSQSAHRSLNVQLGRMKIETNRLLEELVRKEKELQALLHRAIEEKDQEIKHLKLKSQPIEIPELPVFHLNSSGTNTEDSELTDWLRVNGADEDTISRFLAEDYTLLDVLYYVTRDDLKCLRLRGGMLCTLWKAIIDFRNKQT
Nature of the assay: binding to immobilized V16742 (IVA1/IVA2, HeLa lysate, MS).

Assay [1] concerns the target T2, Testis expressed sequence 264 protein precursor (Homo sapiens, UniProt Q9Y6I9).
T2 construct: endogenous in cells; host or cells: HeLa S3
T2 sequence (Q9Y6I9 1-313): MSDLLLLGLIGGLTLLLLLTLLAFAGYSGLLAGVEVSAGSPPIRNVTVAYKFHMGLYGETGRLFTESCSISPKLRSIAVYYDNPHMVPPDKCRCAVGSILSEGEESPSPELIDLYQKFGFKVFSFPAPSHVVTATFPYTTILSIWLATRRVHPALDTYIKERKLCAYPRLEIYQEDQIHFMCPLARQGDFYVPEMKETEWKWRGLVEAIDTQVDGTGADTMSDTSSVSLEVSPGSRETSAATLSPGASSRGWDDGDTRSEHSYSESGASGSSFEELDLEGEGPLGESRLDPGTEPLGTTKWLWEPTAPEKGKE
The assay is described as above.

The target in a further assay is T3, TLK2 (Homo sapiens, UniProt Q86UE8).
T3 construct: endogenous in cells; host or cells: HeLa S3
Described as above.

The target of the next assay is Sepiapterin reductase (Homo sapiens, UniProt P35270). The description is as above.
Another assay concerns the target YES (Homo sapiens, UniProt P07947). Described as above.
The target in assay [2] is p38a (MAPK14, IPI00221141) (Homo sapiens, UniProt Q16539). Nature of the assay: gefitinib competition against AX14596 beads (HeLa lysate, SILAC MS). The assay is classed as binding.
The next assay has as its target CK1e (CSNK1E) (Homo sapiens, UniProt P49674).
A further assay has as its target CaMK2d (CAMK2D) (Homo sapiens, UniProt Q13557).
The mark [3] stands for this setting: average of two experiments, read-out: Kd Avg.

Read-outs that look alike come from different tables or passages of the source.

Sepiapterin reductase, sequence (P35270 whole entry): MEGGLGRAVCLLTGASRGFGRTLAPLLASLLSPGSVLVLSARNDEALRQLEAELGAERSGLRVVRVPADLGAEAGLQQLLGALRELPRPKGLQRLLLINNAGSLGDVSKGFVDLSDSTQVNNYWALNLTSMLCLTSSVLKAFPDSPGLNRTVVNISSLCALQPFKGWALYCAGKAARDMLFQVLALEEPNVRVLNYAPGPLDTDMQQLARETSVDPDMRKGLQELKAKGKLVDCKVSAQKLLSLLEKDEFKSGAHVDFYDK
CK1e (CSNK1E), sequence (P49674 whole entry): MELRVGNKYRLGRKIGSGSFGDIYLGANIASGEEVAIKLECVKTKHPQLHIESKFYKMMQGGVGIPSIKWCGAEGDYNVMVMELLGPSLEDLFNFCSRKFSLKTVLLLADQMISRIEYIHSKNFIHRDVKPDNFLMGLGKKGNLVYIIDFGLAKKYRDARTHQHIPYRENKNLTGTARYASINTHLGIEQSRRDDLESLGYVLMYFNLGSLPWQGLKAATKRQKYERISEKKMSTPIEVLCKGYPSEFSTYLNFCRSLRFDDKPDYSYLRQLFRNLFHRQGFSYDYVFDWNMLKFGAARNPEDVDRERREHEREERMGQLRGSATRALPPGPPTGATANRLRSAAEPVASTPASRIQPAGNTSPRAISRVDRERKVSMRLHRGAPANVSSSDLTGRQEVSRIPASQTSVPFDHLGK
YES, sequence (P07947 whole entry): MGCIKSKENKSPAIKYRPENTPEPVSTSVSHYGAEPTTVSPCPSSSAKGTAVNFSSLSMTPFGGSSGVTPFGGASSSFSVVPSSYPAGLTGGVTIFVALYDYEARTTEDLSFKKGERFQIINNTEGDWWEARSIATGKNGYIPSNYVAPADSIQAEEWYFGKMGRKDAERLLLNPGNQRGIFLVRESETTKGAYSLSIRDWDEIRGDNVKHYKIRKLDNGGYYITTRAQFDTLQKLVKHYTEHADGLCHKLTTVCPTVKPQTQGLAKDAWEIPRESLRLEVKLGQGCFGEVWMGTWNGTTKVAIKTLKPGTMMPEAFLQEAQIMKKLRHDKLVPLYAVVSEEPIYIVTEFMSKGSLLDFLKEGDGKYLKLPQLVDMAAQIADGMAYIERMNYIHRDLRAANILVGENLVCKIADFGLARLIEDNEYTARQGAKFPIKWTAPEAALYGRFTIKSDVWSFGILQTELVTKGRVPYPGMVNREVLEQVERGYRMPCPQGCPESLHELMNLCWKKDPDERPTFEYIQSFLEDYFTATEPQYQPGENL
CaMK2d (CAMK2D), sequence (Q13557 whole entry): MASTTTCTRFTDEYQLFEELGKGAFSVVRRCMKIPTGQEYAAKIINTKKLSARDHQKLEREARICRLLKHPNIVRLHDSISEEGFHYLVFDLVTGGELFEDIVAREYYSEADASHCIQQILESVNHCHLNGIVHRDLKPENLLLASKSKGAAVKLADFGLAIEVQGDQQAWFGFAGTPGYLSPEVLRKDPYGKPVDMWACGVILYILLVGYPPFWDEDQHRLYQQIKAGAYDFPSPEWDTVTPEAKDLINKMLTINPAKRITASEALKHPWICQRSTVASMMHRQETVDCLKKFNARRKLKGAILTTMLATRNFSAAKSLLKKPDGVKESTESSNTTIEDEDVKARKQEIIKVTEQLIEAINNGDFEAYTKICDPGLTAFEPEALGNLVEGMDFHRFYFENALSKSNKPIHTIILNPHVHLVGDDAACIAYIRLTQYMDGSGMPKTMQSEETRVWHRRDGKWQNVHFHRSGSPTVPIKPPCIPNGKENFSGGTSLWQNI
T3 sequence (Q86UE8 whole entry): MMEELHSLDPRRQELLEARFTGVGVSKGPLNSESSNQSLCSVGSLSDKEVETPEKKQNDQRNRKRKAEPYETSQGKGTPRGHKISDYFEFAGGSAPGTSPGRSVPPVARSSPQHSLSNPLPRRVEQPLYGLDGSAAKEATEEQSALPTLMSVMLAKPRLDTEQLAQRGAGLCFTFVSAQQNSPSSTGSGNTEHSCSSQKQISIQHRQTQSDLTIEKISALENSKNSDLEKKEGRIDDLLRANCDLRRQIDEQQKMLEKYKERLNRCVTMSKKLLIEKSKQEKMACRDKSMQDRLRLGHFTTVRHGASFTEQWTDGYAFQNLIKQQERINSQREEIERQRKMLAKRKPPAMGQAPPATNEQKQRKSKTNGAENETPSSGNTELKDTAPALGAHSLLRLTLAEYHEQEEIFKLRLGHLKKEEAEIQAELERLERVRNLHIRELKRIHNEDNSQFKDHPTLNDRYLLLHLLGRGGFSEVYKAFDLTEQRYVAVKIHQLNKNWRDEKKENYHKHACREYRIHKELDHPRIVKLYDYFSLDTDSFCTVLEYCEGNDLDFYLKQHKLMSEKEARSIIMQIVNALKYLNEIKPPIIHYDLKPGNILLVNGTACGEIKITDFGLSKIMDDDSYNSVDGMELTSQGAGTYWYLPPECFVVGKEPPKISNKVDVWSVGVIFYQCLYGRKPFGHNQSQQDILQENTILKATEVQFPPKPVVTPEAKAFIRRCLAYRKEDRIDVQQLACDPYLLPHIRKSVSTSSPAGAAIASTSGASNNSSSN
p38a (MAPK14, IPI00221141), sequence (Q16539 1-360 isoform Q16539-2): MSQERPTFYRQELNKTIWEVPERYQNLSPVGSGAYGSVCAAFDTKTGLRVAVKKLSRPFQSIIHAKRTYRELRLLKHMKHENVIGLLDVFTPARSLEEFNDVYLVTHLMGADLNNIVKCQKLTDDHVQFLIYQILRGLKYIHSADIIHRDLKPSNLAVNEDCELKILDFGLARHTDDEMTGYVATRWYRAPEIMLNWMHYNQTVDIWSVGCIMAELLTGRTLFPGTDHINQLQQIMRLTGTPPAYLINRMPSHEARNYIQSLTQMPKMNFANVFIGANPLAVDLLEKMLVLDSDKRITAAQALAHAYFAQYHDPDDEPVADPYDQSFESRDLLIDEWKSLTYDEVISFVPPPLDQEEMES
Method for Sepiapterin reductase: Using the three populations of SILAC-labelled cells and the three different inhibitor resins, two parallel experiments termed as IVA1 (In Vitro Association, Setting 1) and IVA2 (In Vitro Association, Setting 2) were performed. […] In IVA2, SILAC encoded HeLa cells lysates were subjected to two parallel rounds of consecutive affinity purification at the highest ligand density where the supernatant left behind after the first IVA was used for the second round of IVA. An additional incubation of Hela cell lysate with control beads devoid of immobilized inhibitor was also performed to distinguish background binders.
A common IPI identifier template was assigned to peptides based on the MASCOT html-output file for the IVA2 setting in first experiment. The proteins hits identified based on unique peptides were filtered for mass error and MASCOT score. Eventually, the hits identified in both first and second IVA2 experiments were quantified for IVA2 setting of first experiment by MSQuant. […] A next round of sorting was done to filter out protein hits that are less than 50% enriched in the IVA second round compared to IVA first round. This is because at enrichment below 50%, there could be significant errors in deducing kd values for the corresponding targets. […] The same set of targets was also quantified in IVA2 and IVA1 settings of an independent second experiment.

As usually defined, the Kd is a measure of binding affinity in units of concentration. For `CC(C)n1c(=O)ccc2cnc(Nc3ccc(OCCN)cc3)nc21` [V16742], the “Percent bound at various 16742 conc” value on MAP3K5 (Experiment 1, 1.87 μM 16742) worked out at 7.42%; at MAP3K5 (Experiment 1, 8.74 μM 16742), 10.05%; at MAP3K5 (Experiment 1, 52 μM 16742), 56.90%; at MAP3K5 (Experiment 2, 1.87 μM 16742), 1.27%; at MAP3K5 (Experiment 2, 8.74 μM 16742) it was 1.00%; at MAP3K5 (Experiment 2, 52 μM 16742) it was 17.64%. Besides, the “Percent bound at various 16742 conc” value in assay [1] (Experiment 1, 1.87 μM 16742) is 2.22%; in assay [1] (Experiment 1, 8.74 μM 16742) it was 2.55%; in assay [1] (Experiment 1, 52 μM 16742), 51.05%; in assay [1] (Experiment 2, 1.87 μM 16742) it was 2.11%; in assay [1] (Experiment 2, 8.74 μM 16742), 1.91%; in assay [1] (Experiment 2, 52 μM 16742), 24.69%. Moreover, the “Percent bound at various 16742 conc” value on TLK2 (Experiment 1, 1.87 μM 16742) came out at 2.49%; at TLK2 (Experiment 1, 8.74 μM 16742), 3.89%; at TLK2 (Experiment 1, 52 μM 16742) it was 58.72%; at TLK2 (Experiment 2, 1.87 μM 16742), 1.24%; on TLK2 (Experiment 2, 8.74 μM 16742) it was 3.73%; at TLK2 (Experiment 2, 52 μM 16742), 41.78%. Besides, the “Percent bound at various 16742 conc” value stood at 2.16% on Sepiapterin reductase (Sepiapterin reductase, Experiment 1, 1.87 μM 16742); 2.59% at Sepiapterin reductase (Sepiapterin reductase, Experiment 1, 8.74 μM 16742); 51.84% at Sepiapterin reductase (Sepiapterin reductase, Experiment 1, 52 μM 16742); 1.04% on Sepiapterin reductase (Sepiapterin reductase, Experiment 2, 1.87 μM 16742); 1.52% at Sepiapterin reductase (Sepiapterin reductase, Experiment 2, 8.74 μM 16742); 30.43% at Sepiapterin reductase (Sepiapterin reductase, Experiment 2, 52 μM 16742). The equilibrium dissociation constant (Kd) at MAP3K5 (Experiment 1, read-out: Kd) is 44.5 µM; at MAP3K5 (Experiment 2, read-out: Kd) it was 252 µM; at MAP3K5 (setting [3]), 148 µM; in assay [1] (Experiment 1, read-out: Kd), 60 µM; in assay [1] (Experiment 2, read-out: Kd), 165 µM; in assay [1] (setting [3]), 113 µM. In addition, the dissociation constant (Kd) at TLK2 (Experiment 1, read-out: Kd) worked out at 47.3 µM; at TLK2 (Experiment 2, read-out: Kd) it was 80 µM; at TLK2 (setting [3]) it was 63.7 µM; on Sepiapterin reductase, 58.6 µM; at Sepiapterin reductase (Kd Avg, Sepiapterin reductase, average of two experiments), 93 µM; on Sepiapterin reductase (Kd, Sepiapterin reductase, Experiment 2), 127 µM. Also, on Sepiapterin reductase (Kd, Sepiapterin reductase, immobilized V16742), the Kd came out at 93 µM.

On to `CC(C)n1c(=O)ccc2cnc(Nc3ccc(OCCN)cc3)nc21` [compound 16742], for which the results for the “Percent bound at 1.87 μM 16742 conc” value at YES (EXPERIMENT 1) and at YES (EXPERIMENT 2) were 4.07% and 3.61%, respectively. Also, the “Percent bound at 8.74 μM 16742 conc” value on YES (EXPERIMENT 1) was found to be 25.17%; at YES (EXPERIMENT 2), 15.31%. Moreover, the “Percent bound at 52 μM 16742 conc” value is listed as 62.69% on YES (EXPERIMENT 1) and 54.74% at YES (EXPERIMENT 2). Moreover, the Kd came out at 29.3 µM at YES (EXPERIMENT 1, read-out: Kd); 44.3 µM on YES (EXPERIMENT 2, read-out: Kd); 36.8 µM on YES (read-out: Kd Avg).

`COc1cc2ncnc(Nc3ccc(F)c(Cl)c3)c2cc1OCCCN1CCOCC1` [gefitinib]: in assay [2], the “rAVERAGE (10 nM/0 nM Gef.)” value is 0.88, the “rAVERAGE (100 nM/0 nM Gef.)” value is 0.97, the “rAVERAGE (1000 nM/0 nM Gef.)” value was determined as 0.97 and the “rAVERAGE (10000 nM/0 nM Gef.)” value stood at 0.64. In addition, on CK1e (CSNK1E), the “rAVERAGE (10 nM/0 nM Gef.)” value is on record as 0.80, the “rAVERAGE (100 nM/0 nM Gef.)” value is 1.00, the “rAVERAGE (1000 nM/0 nM Gef.)” value is 0.84 and the “rAVERAGE (10000 nM/0 nM Gef.)” value is given as 0.59. At CaMK2d (CAMK2D), the “rAVERAGE (10 nM/0 nM Gef.)” value came to 0.89, the “rAVERAGE (100 nM/0 nM Gef.)” value turned out to be 1.11, the “rAVERAGE (1000 nM/0 nM Gef.)” value came to 0.91 and the “rAVERAGE (10000 nM/0 nM Gef.)” value was 0.93.

These data come from patent US8959984B2, “Proteome-wide quantification of small molecule binding to cellular target proteins” (priority 2007, dated 2015).
